From patent US6376552B1, “Treatment of gallstones” (Knoll Pharmaceutical Company, priority 1999, dated 2002)

Test system: gallstones
Assay: administration to a patient during weight loss, development of gallstones
Assay type: in vivo, human
Conditions: 10 mg orally once daily in the morning while patient is losing weight
Method: Sibutramine 10 mg orally once daily is administered in the morning during the time a patient is losing weight.

**Q.** Which development of gallstones does the source give for `CC(C)CC(N(C)C)C1(c2ccc(Cl)cc2)CCC1` (stereo not shown) [Sibutramine, N,N-dimethyl-1-[1-(4-chlorophenyl)cyclobutyl]-3-methylbutylamine] here?
**A.** does not develop gallstones
